Measured values published in patent US20250051300A1, “GRAM-NEGATIVE SPECIFIC ANTIBIOTICS SPARING EFFECT ON GUT MICROBIOME” (THE BOARD OF TRUSTEES OF THE UNIVERSITY OF ILLINOIS, priority 2021, published 2025).
Converted amounts (≈) assume the structure as drawn. Where two headings read alike, the source gives them in different places.

Tests used:
[1] = tested on: Salmonella typhimurium; assay: MIC, micro-dilution broth method (CLSI); assay type: cell-based; conditions: Salmonella enterica, ATCC 14028 / TYPHIMURIUM; Salmonella typhimurium ATCC14028
[2] = tested on: Acinetobacter baumannii; assay: MIC, micro-dilution broth method (CLSI); assay type: cell-based
Description: (§1) Antimicrobial susceptibility assays.

[3] = tested on: Bacillus cereus; assay: MIC, micro-dilution broth method (CLSI); assay type: cell-based; conditions: ATCC11778; Bacillus cereus ATCC 11778
Description: as §1

[4] = tested on: Bacillus subtilis; assay: MIC, micro-dilution broth method (CLSI); assay type: cell-based; conditions: Bacillus subtilis PY79
Description: as §1

[5] = tested on: Enterococcus faecium; assay: MIC, micro-dilution broth method (CLSI); assay type: cell-based; conditions: ATCC19434; Enterococcus faecium ATCC 19434
Description: as §1

[6] = tested on: Listeria monocytogenes; assay: MIC, micro-dilution broth method (CLSI); assay type: cell-based; conditions: ATCC19115; Listeria monocytogenes ATCC 19115
Description: as §1

[7] = tested on: Pseudomonas aeruginosa; assay: MIC, micro-dilution broth method (CLSI); assay type: cell-based
Description: as §1

[8] = tested on: Staphylococcus aureus; assay: MIC, micro-dilution broth method (CLSI); assay type: cell-based; conditions: ATCC29213; Staphylococcus aureus ATCC 29213
Description: as §1

[9] = tested on: Staphylococcus epidermidis; assay: MIC, micro-dilution broth method (CLSI); assay type: cell-based; conditions: Staphylococcus epidermidis NRS101
Description: as §1

[10] = tested on: Streptococcus pneumoniae; assay: MIC, micro-dilution broth method (CLSI); assay type: cell-based; conditions: Streptococcus pneumoniae Strain 1003
Description: as §1

[11] = tested on: Streptococcus pyogenes; assay: MIC, micro-dilution broth method (CLSI); assay type: cell-based; conditions: Streptococcus pyogenes Strain 1055
Description: as §1

[12] = tested on: Bacillus anthracis; assay: microbe, parasite or virus in culture; assay type: cell-based
[13] = tested on: Enterococcus faecalis; assay: MIC, micro-dilution broth method (CLSI); assay type: cell-based
[14] = tested on: E. cloacae AR0163; assay: Acute pneumonia bacterial burden model; assay type: in vivo, CD-1 mice; conditions: colistin-resistant E. cloacae, 100 mg/kg IP (FIG. 7E)
[15] = tested on: E. cloacae AR0163; assay: Bacterial sepsis survival model; assay type: in vivo, CD-1 mice; conditions: colistin-resistant E. cloacae, 100 mg/kg IP twice daily for 3 days (FIG. 7F)
[16] = tested on: gut microbiome; conditions: mouse, in vivo, po
[17] = tested on: Bacteroides cellulosilyticus; assay: MIC, gut commensal bacteria, micro-dilution broth
[18] = tested on: Stenotrophomonas maltophilia; assay: MIC, gut commensal bacteria, micro-dilution broth
[19] = tested on: Faecalibacterium prausnitzii; assay: MIC, gut commensal bacteria, micro-dilution broth
[20] = tested on: Streptococcus parasanguinis; assay: MIC, gut commensal bacteria, micro-dilution broth
[21] = tested on: Bifidobacterium longum; assay: MIC, gut commensal bacteria, micro-dilution broth

For `Cc1cc(-c2c[nH]nc2-c2cccc(OCc3cccc(C#N)c3)c2)cc(C)n1` [Compound 12, 3-((3-(4-(2,6-dimethylpyridin-4-yl)-1H-pyrazol-3-yl)phenoxy)methyl)benzonitrile], the MIC [1] was 1 µg/mL (≈ 2.63 µM), the MIC ([2]; ATCC19606, Acinetobacter baumannii ATCC 19606) was > 128 µg/mL and the MIC ([2]; ATCC19606, Acinetobacter baumannii ATCC 19606 Δ3) was 32 µg/mL (≈ 84.1 µM). For the same compound, the MIC [3] was > 128 µg/mL, the MIC [4] was > 128 µg/mL and the MIC [5] was > 128 µg/mL. For the same compound, the MIC [6] was > 128 µg/mL, the MIC ([7]; Pseudomonas aeruginosa PAO1, read-out: MIC) was > 128 µg/mL and the MIC ([7]; Pseudomonas aeruginosa PAO1 Δ6) was > 128 µg/mL. The MIC [8] was > 128 µg/mL, the MIC [9] was > 128 µg/mL and the MIC [10] was > 128 µg/mL. The MIC [11] was > 128 µg/mL, the MIC [12] was > 128 µg/mL and the MIC ([13]; Enterococcus faecalis) was > 128 µg/mL. For the same compound, the MIC ([13]; Enterococcus faecalis KLE 2341, BHI-ych, listed as Lolamycin) was >128 µg/mL, the MIC ([13]; Enterococcus faecalis, ATCC19433) was > 128 µg/mL and the “efficacy, bacterial burden” value [14] was “showed the efficacy”. The “efficacy, survival” value [15] was “showed the efficacy”, the “effect on gut microbiome taxonomic composition” value [16] was “did not cause any drastic changes in taxonomic composition” and the MIC ([17]; Bacteroides cellulosilyticus) was > 128 µg/mL. The MIC ([17]; Bacteroides cellulosilyticus KLE 2342, BHI-ych, listed as Lolamycin) was >128 µg/mL, the MIC ([18]; Stenotrophomonas maltophilia ATCC 13637, BHI-ych, listed as Lolamycin) was >128 µg/mL and the MIC ([18]; Stenotrophomonas maltophilia, ATCC13637) was > 128 µg/mL. The MIC ([19]; Faecalibacterium prausnitzii ATCC 27768, BHI-ych, listed as Lolamycin) was >128 µg/mL, the MIC ([19]; Faecalibacterium prausnitzii, ATCC27768) was > 128 µg/mL and the MIC ([20]; Streptococcus parasanguinis) was > 128 µg/mL. For the same compound, the MIC ([20]; Streptococcus parasanguinis KLE 2375, BHI-ych, listed as Lolamycin) was >128 µg/mL, the MIC ([21]; Bifidobacterium longum ATCC BAA-999, BHI-ych, listed as Lolamycin) was >128 µg/mL and the MIC ([21]; Bifidobacterium longum, ATCCBAA999) was > 128 µg/mL.
